Assay results published in PMC4033665 (Journal of Medicinal Chemistry, 2014).
Entries after “also recorded” stand apart in the source; their conditions may differ. Like-named read-outs stand apart in the source and are kept apart here.

How the values were obtained:
[1] = molecular target: T1, human Mcl-1 (Homo sapiens, UniProt Q07820); assay type: binding; settings: for improved binding compared to 1: reference compound 1
[2] = molecular target: T1, human Mcl-1; assay type: binding; settings: for improved binding in SPR assay compared to 3: reference compound 3; for decrease of binding in SPR assay compared to 10: reference compound 10
[3] = molecular target: endogenous Mcl-1 protein (Homo sapiens, UniProt Q07820); experiment: biotin-streptavidin pull-down with biotin-labeled Noxa in 2LMP whole cell lysate; settings: BL-Noxa 0.1 μM
[4] = molecular target: T1, human Mcl-1; experiment: 1H,15N-HSQC NMR chemical shift perturbation of Mcl-1; assay type: binding; settings: 15N-labeled Mcl-1 75 μM, Mcl-1:compound 1:1 and 1:2
[5] = test system: Eμ-myc/Mcl-1 lymphoma cells; experiment: cell death; assay type: cell-based, mice; settings: 15–18 h, increasing concentrations
[6] = test system: Eμ-myc/Bcl-2 lymphoma cells; experiment: cell death; assay type: cell-based, mice; settings: 15–18 h, increasing concentrations
[7] = test system: HL-60 cells; experiment: apoptosis by annexin-V / PI double staining, flow cytometry, HL-60; assay type: cell-based, human; settings: for induction of apoptosis in HL-60 (in words) / apoptotic cells (early + late): 20 h
[8] = test system: caspase-3 activity in HL-60 cells; experiment: caspase-3 fluorometric assay; assay type: cell-based, human; settings: for induction of caspase-3 activity (in words): HL-60, 20 h
[9] = molecular target: Mcl-1; settings: read-out: Ki of 53 to Mcl-1; cited from earlier work
[10] = molecular target: Bcl-2; settings: read-out: Ki against Bcl-2; cited from earlier work

T1 sequence (Q07820 171-327): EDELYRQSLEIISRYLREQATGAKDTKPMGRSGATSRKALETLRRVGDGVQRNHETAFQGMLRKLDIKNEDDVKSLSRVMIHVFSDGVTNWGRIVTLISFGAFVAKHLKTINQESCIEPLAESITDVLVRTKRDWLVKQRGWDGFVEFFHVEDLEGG
Chain of endogenous Mcl-1 protein (Q07820 whole entry): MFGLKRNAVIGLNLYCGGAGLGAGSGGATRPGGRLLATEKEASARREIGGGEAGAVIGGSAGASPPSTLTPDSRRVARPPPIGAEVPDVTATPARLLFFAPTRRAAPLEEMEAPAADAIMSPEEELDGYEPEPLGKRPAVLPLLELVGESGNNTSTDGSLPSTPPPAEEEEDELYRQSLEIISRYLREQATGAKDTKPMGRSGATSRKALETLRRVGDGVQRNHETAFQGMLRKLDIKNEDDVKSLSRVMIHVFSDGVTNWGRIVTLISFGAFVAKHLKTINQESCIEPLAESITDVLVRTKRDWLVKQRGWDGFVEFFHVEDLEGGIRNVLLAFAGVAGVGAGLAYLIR

O=C(O)CSc1cc(NS(=O)(=O)c2ccc(Br)cc2)c2ccccc2c1O [Compound 10, 2-((4-(4-Bromophenylsulfonamido)-1-hydroxynaphthalen-2-yl)thio)acetic Acid]
improved binding compared to 1 [1]: 7 fold | improved binding in FP assay compared to 3 ([1]; reference compound 3): 7 fold | improved binding in SPR assay compared to 3 [2]: 5 fold | binding of BL-Noxa to Mcl-1 after preincubation (pull-down, Western blot) [3]: completely blocked

CCCCSc1cc(NS(=O)(=O)c2ccc(Br)cc2)c2ccccc2c1O [Compound 31, 4-Bromo-N-(3-(butylthio)-4-hydroxynaphthalen-1-yl)benzenesulfonamide]
did not show binding up to (FP assay, highest concentration tested) ([1]; competitive FP, Mcl-1): > 100 µM

CC(C)(C)c1ccc(S(=O)(=O)Nc2cc(SCC(=O)O)c(O)c3ccccc23)cc1 [Compound 7]
improved binding in FP assay compared to 3 ([1]; reference compound 3): 4.5 fold | improved binding in SPR assay compared to 3 [2]: 1.5 fold

CS(=O)(=O)Nc1cc(SCC(=O)O)c(O)c2ccccc12 [Compound 2, 2-((1-Hydroxy-4-(methylsulfonamido)naphthalen-2-yl)thio)acetic Acid]
chemical shift perturbation of Mcl-1 backbone residues (HSQC NMR, in words) [4]: lack of chemical shift perturbation

COC(=O)CSc1cc(NS(=O)(=O)c2ccc(Br)cc2)c2ccccc2c1OC [Compound 41, Methyl 2-((4-(4-Bromophenylsulfonamido)-1-methoxynaphthalen-2-yl)thio)acetate]
did not show binding up to (FP assay, highest concentration tested) [1]: > 100 µM | sensitivity of lymphoma cells overexpressing Mcl-1 to induced cell death [5]: did not show any activity | sensitivity of lymphoma cells overexpressing Bcl-2 to induced cell death [6]: did not show any activity | induction of apoptosis in HL-60 (in words) ([7]; 40 μM): has no effect on apoptosis induction

COc1ccc(S(=O)(=O)Nc2cc(SCC(=O)O)c(O)c3ccccc23)cc1 [Compound 11, 2-((1-Hydroxy-4-(4-methoxyphenylsulfonamido)naphthalen-2-yl)thio)acetic Acid]
decreased binding in FP assay compared to 3 [1]: 3 fold

CC(=O)Oc1c(SCC(=O)O)cc(NS(=O)(=O)c2ccc(Br)cc2)c2ccccc12 [Compound 46, 2-((1-Acetoxy-4-(4-bromophenylsulfonamido)naphthalen-2-yl)thio)acetic Acid]
decrease of binding in FP assay compared to 10 ([1]; reference compound 10): 69 fold

NC(=O)CSc1cc(NS(=O)(=O)c2ccc(Br)cc2)c2ccccc2c1O [Compound 33, 2-((4-(4-Bromophenylsulfonamido)-1-hydroxynaphthalen-2-yl)thio)acetamide]
decrease of binding in FP assay compared to 10 [1]: 3 fold | decrease of binding in SPR assay compared to 10 [2]: 2 fold

O=C(O)CSc1cc(NS(=O)(=O)Cc2ccc(Cl)cc2)c2ccccc2c1O [Compound 26, 2-((4-((4-Chlorophenyl)methylsulfonamido)-1-hydroxynaphthalen-2-yl)thio)acetic Acid]
decreased binding affinity (FP) relative to 9 ([1]; reference compound 9): 6 fold

COC(=O)CSc1cc(NS(=O)(=O)c2ccc(Br)cc2)c2ccccc2c1O [Compound 32, Methyl 2-((4-(4-Bromophenylsulfonamido)-1-hydroxynaphthalen-2-yl)thio)acetate]
decrease of binding in FP assay compared to 10 ([1]; reference compound 10): 10 fold | decrease of binding in SPR assay compared to 10 [2]: 6 fold

O=C(O)CSc1cc(NS(=O)(=O)c2ccc(-c3ccc(Cl)cc3)cc2)c2ccccc2c1O [Compound 19, 2-((4-(4′-Chloro-[1,1′-biphenyl]-4-ylsulfonamido)-1-hydroxynaphthalen-2-yl)thio)acetic Acid]
less potent than 53 (Mcl-1 binding) [1]: 3 fold | improved binding compared to 1 [1]: 9 fold | improved binding in FP assay compared to 3 ([1]; reference compound 3): 21 fold | improved binding in SPR assay compared to 3 [2]: 14 fold | sensitivity of lymphoma cells overexpressing Mcl-1 to induced cell death [5]: significantly sensitive | sensitivity of lymphoma cells overexpressing Bcl-2 to induced cell death [6]: ineffective | induction of caspase-3 activity (in words) [8]: induce activation of caspase-3 activity in a dose-dependent manner; also recorded: induced activation of caspase-3 | binding of BL-Noxa to Mcl-1 after preincubation (pull-down, Western blot) [3]: completely blocked

O=C(O)CSc1cc(NS(=O)(=O)c2ccc(-c3ccccc3)cc2)c2ccccc2c1O [Compound 16, 2-((4-([1,1′-Biphenyl]-4-ylsulfonamido)-1-hydroxynaphthalen-2-yl)thio)acetic Acid]
improved binding in FP assay compared to 3 [1]: 10 fold | improved binding in SPR assay compared to 3 [2]: 6 fold

COc1c(I)cc(C=O)c2ccccc12 [Compound 53]
Ki [9]: 55 nM | Ki [10]: 870 nM

O=C(O)CSc1cc(NC(=O)c2ccc(Br)cc2)c2ccccc2c1O [Compound 25, 2-((4-(4-Bromobenzamido)-1-hydroxynaphthalen-2-yl)thio)acetic Acid]
decrease of binding in FP assay compared to 10 [1]: 83 fold

COC(=O)C[C@H](NC(=O)[C@H](C)NC(=O)[C@@H](NC(=O)OCc1ccccc1)C(C)C)C(=O)CF (racemic) [Z-VAD-FMK, Z-Val-Ala-DL-Asp-fluoromethylketone, reference compound]
effect of Z-VAD-FMK alone on cells ([7]; HL-60, Figure S7): has no effect on cells

O=C(O)CSc1cc(CNS(=O)(=O)c2ccccc2)c2ccccc2c1O [Compound 27]
decreased binding in FP assay compared to 3 [1]: 18 fold

O=C(O)CSc1cc(NS(=O)(=O)c2cccc(-c3ccccc3)c2)c2ccccc2c1O [Compound 17, 2-((4-([1,1′-Biphenyl]-3-ylsulfonamido)-1-hydroxynaphthalen-2-yl)thio)acetic Acid]
improved binding in FP assay compared to 3 ([1]; reference compound 3): 10 fold | improved binding in SPR assay compared to 3 [2]: 6 fold

O=S(=O)(Nc1ccc(O)c2ccccc12)c1ccccc1 [Compound 30]
did not show binding up to (FP assay, highest concentration tested) ([1]; competitive FP, Mcl-1): > 100 µM

CC1(C)CCC(c2ccc(Cl)cc2)=C(CN2CCN(c3ccc(C(=O)NS(=O)(=O)c4ccc(N[C@H](CCN5CCOCC5)CSc5ccccc5)c(S(=O)(=O)C(F)(F)F)c4)cc3)CC2)C1 [ABT-263, reference compound]
sensitivity of lymphoma cells overexpressing Mcl-1 to induced cell death [5]: insensitive | sensitivity of lymphoma cells overexpressing Bcl-2 to induced cell death [6]: sensitive

O=S(=O)(Nc1cc(SCc2nnn[nH]2)c(O)c2ccccc12)c1ccc(Oc2ccccc2)cc1 [Compound 37, N-(3-(((2H-Tetrazol-5-yl)methyl)thio)-4-hydroxynaphthalen-1-yl)-4-phenoxybenzenesulfonamide]
induction of apoptosis in HL-60 (in words) ([7]; 2.5, 5.0 and 10 μM): effectively induced apoptosis in a dose-dependent manner | apoptotic cells (early + late) ([7]; HL-60, 5.0 μM): 51.6% | apoptotic cells (early + late) ([7]; HL-60, 10 μM): 74.2% | induction of apoptosis in the presence of Z-VAD-FMK (in words) ([7]; HL-60, pretreated with 100 μM Z-VAD-FMK): significantly inhibited

O=C(O)CSc1cc(NS(=O)(=O)c2ccc(Oc3ccccc3)cc2)c2ccccc2c1O [Compound 21, 2-((1-Hydroxy-4-(4-phenoxyphenylsulfonamido)naphthalen-2-yl)thio)acetic Acid]
less potent than 53 (Mcl-1 binding) [1]: 3 fold | sensitivity of lymphoma cells overexpressing Mcl-1 to induced cell death [5]: significantly sensitive | sensitivity of lymphoma cells overexpressing Bcl-2 to induced cell death [6]: ineffective | induction of apoptosis in HL-60 (in words) ([7]; 2.5, 5.0 and 10 μM): effectively induced apoptosis in a dose-dependent manner | concentration at which induction of apoptosis starts ([7]; HL-60): 2.5 µM | apoptotic cells (early + late) ([7]; HL-60, 5.0 μM): 37.8% | apoptotic cells (early + late) ([7]; HL-60, 10 μM): 78.4% | induction of caspase-3 activity (in words) [8]: induce activation of caspase-3 activity in a dose-dependent manner; also recorded: induced activation of caspase-3 | concentration at which activation of caspase-3 starts ([8]; HL-60, over a 24 h period): 2.5 µM | binding of BL-Noxa to Mcl-1 after preincubation (pull-down, Western blot) [3]: completely blocked

O=C(O)CSc1cc(NS(=O)(=O)N2CCN(c3ccccc3)CC2)c2ccccc2c1O [Compound 23, 2-((1-Hydroxy-4-(4-phenylpiperazine-1-sulfonamido)naphthalen-2-yl)thio)acetic Acid]
decrease in binding in FP assay in comparison with 16 [1]: 6 fold | decrease in binding in SPR assay in comparison with 16 ([2]; reference compound 16): 8 fold
